Data published in US5288706A, “Medicament for prevention and remedy of diseases of the pancreas and others” (Mitsui Toatsu Chemicals, Incorporated, priority 1987, dated 1994).
Where two headings read alike, the source gives them in different places. Non-standard residues stand in square brackets, D forms with d. Residues, ends and D or L forms follow the SMILES beside them. pGlu = O=C1CC[C@@H](C(=O)O)N1

Legend:
Wister rats = conditions: rat, in vivo, sc, 30 mg/kg
Experimental: (§1) Thus, the medicament of the present invention is a safe medicament of extremely low toxicity and can be administered for a long period of time.
No toxicity was observed when 30 mg/kg of FTS as the effective ingredient wa subcutaneously administered for consecutive 21 days to a group of ten Wister rats of 5 weeks old.

ddy male mice = conditions: mouse, in vivo, sc
Experimental: as §1
No toxicity was observed when 50 mg/kg and 100 mg/kg of FTS as the effective ingredient were subcutaneously administered for consecutive 14 days to a group of five ddy male mice of 5 weeks old.

C[C@H](NC(=O)[C@@H]1CCC(=O)N1)C(=O)N[C@@H](CCCCN)C(=O)N[C@@H](CO)C(=O)N[C@@H](CCC(N)=O)C(=O)NCC(=O)NCC(=O)N[C@@H](CO)C(=O)N[C@@H](CC(N)=O)C(=O)O [FTS, pGlu-Ala-Lys-Ser-Gln-Gly-Gly-Ser-Asn] ([pGlu]AKSQGGSN-OH)
toxicity (Wister rats): No toxicity | toxicity (external behavior observation, biochemical diagnosis of sera, pathological anatomy) (Wister rats): no abnormal symptom | toxicity (ddy male mice; 50 mg/kg): No toxicity | toxicity (ddy male mice; 100 mg/kg): No toxicity
